Experimental data published in US8440632B2, “Protopanaxadiol-type ginsenoside compositions and uses thereof” (Raptor Therapeutics Inc., priority 2008, dated 2013).

Columns and labels:
[1] = test system: alcohol dehydrogenase (ADH); test: Alcohol dehydrogenase (ADH) activity, colorimetric assay; assay type: biochemical; settings: 5, 50 or 500 μg/mL, relative to ADH activity in the absence of ginsenoside (FIG. 1)
Procedure: Ginsenosides Rb1, Rb2, Rc, Rd, Re and Rg1 were obtained from ChromaDex Inc., Irvine, Calif., USA. The ginsenosides were dissolved in DMSO to prepare a stock solution. Prior to performing an activity assay, portions of a ginsenosides stock solution were diluted in aqueous reaction buffer solution and from which samples were taken and assayed for activity.
ADH activity was measured in a colorimetric assay as described in Gibla and Gonzalex-Durante, J. Biochem. Biophys. Methods 1993, 26, 87-93, the contents of which are incorporated by reference herein in its entirety.

[2] = target: T1, aldehyde dehydrogenase (ALDH) (Saccharomyces cerevisiae, UniProt P46367); test: Aldehyde dehydrogenase (ALDH) activity assay, conversion of acetaldehyde into acetic acid; assay type: biochemical; settings: 5, 50 or 500 μg/mL, relative to ALDH activity in the absence of ginsenoside (FIG. 3)
T1 construct: purchased Sigma-Aldrich A 6338
T1 sequence (P46367 25-519): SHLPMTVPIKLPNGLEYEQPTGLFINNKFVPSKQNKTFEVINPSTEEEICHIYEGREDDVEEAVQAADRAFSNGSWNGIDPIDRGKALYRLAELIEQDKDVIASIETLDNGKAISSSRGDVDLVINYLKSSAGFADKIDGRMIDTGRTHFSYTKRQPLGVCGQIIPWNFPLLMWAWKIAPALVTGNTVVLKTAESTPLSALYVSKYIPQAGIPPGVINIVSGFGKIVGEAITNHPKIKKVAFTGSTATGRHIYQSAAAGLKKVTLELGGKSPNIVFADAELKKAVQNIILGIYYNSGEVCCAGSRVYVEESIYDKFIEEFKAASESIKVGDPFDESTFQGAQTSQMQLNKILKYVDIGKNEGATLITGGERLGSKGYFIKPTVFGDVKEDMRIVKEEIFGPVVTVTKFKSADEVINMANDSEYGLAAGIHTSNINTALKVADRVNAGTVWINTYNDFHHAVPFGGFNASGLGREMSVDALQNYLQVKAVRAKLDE
Procedure: Stock solutions of ginsenosides Rb1, Rb2, Rc, Rd, Re and Rg1 in DMSO as described above, were prepared. ALDH was obtained from Sigma-Aldrich (product no. A 6338). Enzyme activity assays were performed in vitro according to instructions supplied by the vendor as modified by the addition of test substances, which is based on assay described in Bostian et al., Biochemical Journal 1978, 173, 773-786, the contents of which are incorporated by reference herein in their entirety. This assay measures the conversion of acetaldehyde into acetic acid via […] by ALDH catalysis.

Row | SMILES | effect on ADH activity [1] | effect on ALDH activity [2]
1 | CC(C)=CCC[C@](C)(O[C@@H]1O[C@H](CO[C@@H]2O[C@H](CO)[C@@H](O)[C@H](O)[C@H]2O)[C@@H](O)[C@H](O)[C@H]1O)[C@H]1CC[C@]2(C)[C@@H]1[C@H](O)C[C@@H]1[C@@]3(C)CC[C@H](O[C@@H]4O[C@H](CO)[C@@H](O)[C@H](O)[C@H]4O[C@@H]4O[C@H](CO)[C@@H](O)[C@H](O)[C@H]4O)C(C)(C)[C@@H]3CC[C@]12C [ginsenoside Rb1] | reduced ADH activity | increased ALDH activity
2 | CC(C)=CCC[C@](C)(O[C@@H]1O[C@H](CO[C@@H]2OC[C@H](O)[C@H](O)[C@H]2O)[C@@H](O)[C@H](O)[C@H]1O)[C@H]1CC[C@]2(C)[C@@H]1[C@H](O)C[C@@H]1[C@@]3(C)CC[C@H](O[C@@H]4O[C@H](CO)[C@@H](O)[C@H](O)[C@H]4O[C@@H]4O[C@H](CO)[C@@H](O)[C@H](O)[C@H]4O)C(C)(C)[C@@H]3CC[C@]12C [ginsenoside Rb2] | reduced ADH activity | increased ALDH activity
3 | CC(C)=CCC[C@](C)(O[C@@H]1O[C@H](CO[C@@H]2O[C@@H](CO)[C@H](O)[C@H]2O)[C@@H](O)[C@H](O)[C@H]1O)[C@H]1CC[C@]2(C)[C@@H]1[C@H](O)C[C@@H]1[C@@]3(C)CC[C@H](O[C@@H]4O[C@H](CO)[C@@H](O)[C@H](O)[C@H]4O[C@@H]4O[C@H](CO)[C@@H](O)[C@H](O)[C@H]4O)C(C)(C)[C@@H]3CC[C@]12C [ginsenoside Rc] | reduced ADH activity | increased ALDH activity
4 | CC(C)=CCC[C@](C)(O[C@@H]1O[C@H](CO)[C@@H](O)[C@H](O)[C@H]1O)[C@H]1CC[C@]2(C)[C@@H]1[C@H](O)C[C@@H]1[C@@]3(C)CC[C@H](O[C@@H]4O[C@H](CO)[C@@H](O)[C@H](O)[C@H]4O[C@@H]4O[C@H](CO)[C@@H](O)[C@H](O)[C@H]4O)C(C)(C)[C@@H]3CC[C@]12C [ginsenoside Rd] | reduced ADH activity | increased ALDH activity
5 | CC(C)=CCC[C@](C)(O[C@@H]1O[C@H](CO)[C@@H](O)[C@H](O)[C@H]1O)[C@H]1CC[C@]2(C)[C@@H]1[C@H](O)C[C@@H]1[C@@]3(C)CC[C@H](O)C(C)(C)[C@@H]3[C@@H](O[C@@H]3O[C@H](CO)[C@@H](O)[C@H](O)[C@H]3O[C@@H]3O[C@@H](C)[C@H](O)[C@@H](O)[C@H]3O)C[C@]12C [ginsenoside Re, reference compound] | did not have a significant effect on ADH activity | did not have a significant effect on ALDH activity
6 | CC(C)=CCC[C@](C)(O[C@@H]1O[C@H](CO)[C@@H](O)[C@H](O)[C@H]1O)[C@H]1CC[C@]2(C)[C@@H]1[C@H](O)C[C@@H]1[C@@]3(C)CC[C@H](O)C(C)(C)[C@@H]3[C@@H](O[C@@H]3O[C@H](CO)[C@@H](O)[C@H](O)[C@H]3O)C[C@]12C [ginsenoside Rg1, reference compound] | did not have a significant effect on ADH activity | did not have a significant effect on ALDH activity
